Laboratory results taken from patent US20260166045A1, “COMBINATION THERAPY COMPRISING GSPT1-DIRECTED MOLECULAR GLUE DEGRADERS AND PI3K/AKT/mTOR PATHWAY INHIBITORS” (Monte Rosa Therapeutics, Inc., priority 2022, published 2026).
Values joined by “and” are separate entries in the source; they are usually repeats but may differ in a detail not shown here. Equal values may be shown once.

What was measured:
Experiment in all cases: CellTiter-Glo 2.0 cell viability, 7x7 combination dose response matrix, synergy scoring
Assay type in all cases: cell-based
[1] = tested on: NCI-H2023 cell line
Excerpt: (§1) A study was undertaken to determine whether the combination of a GSPT1-directed MGD and an inhibitor of the PI3K/AKT/mTOR pathway could be effective in killing cancer cells and whether certain combination could elicit a greater than additive effect on cell killing.
(§2) FIG. 1 is a flow diagram of the method used to assess cancer cell killing by a combination of a GSPT1-directed MGD and an inhibitor of the PI3K/AKT/mTOR pathway. Certain of the materials and equipment used in the studies are presented in Table 3 and the cell lines used are presented in Table 4.
(§3) All assays were run in triplicate. Each 384-well plate accommodated six 7×7 dose response matrices (FIG. 2). All compound handling was performed using an Echo 650 Series Acoustic Liquid Handler, which enables fully automated, precise, contact-free acoustic transfer in volumes as low as 2.5 nL.
(§4) The following protocol was used for cell plating: • 1. Warm media to room temperature or 37° C. • 2. Prepare complete phenol-free media by adding 10% FBS+1% Pen-Strep to RPMI 1640 Medium or DMEM. • 3. Aspirate media from T175 tissue culture flask and rinse with 10 ml PBS. • 4. Aspirate PBS and add 2 mL 0.25% trypsin. Incubate the flask at 37° C. for 5 min or until cells are detached. • 5. Add 10 mL complete media to the flask to neutralize the trypsin, then collect cells in a 50 mL conical tube. • 6. Centrifuge cells at 300 g for 5 min. Aspirate media and suspend cell pellet in fresh media. Use cell strainer to strain cells into a new 50 mL conical tube. • 7. […] Mix 100 uL cell suspension with 100 uL trypan blue (1:1) and pipette 20 μL of the mixture into each of 2 counting chambers on a slide. Insert slide. • b. Adjust focus and record the live cell count. At least 2 independent measurements should be taken. […] Cell viability should be greater than 90%. […] Dilute cell suspension to the desired concentration (20000 cells/mL) using complete phenol-free media. Prepare 10 mL cell suspension per plate+an extra 10 mL for priming the liquid handler. • 9. Dispense cells into 384-well plates using the liquid handler at 25 uL/well (500 cells/well). 3 plates should be prepared per compound plate to be treated. • 10. Cells should be dispensed into columns 1-23 only. Media only (no cells) should be dispensed into column 24. • 11. Allow plates to rest at RT for 30 minutes before transferring to the incubator. Incubate cells overnight at 37° C., 95% humidity, and 5% CO2.
(§5) Compound plates were prepared as follows using an Echo 650 Series Acoustic Liquid Handler. • 1. A compound plate containing 7-point dose responses of each compound to be treated is first prepared from stock compounds. • 2. The cell plates are treated with compounds according to the following maps, where the first compound is added across all six 7 by 7 dose response matrices, and its concentration varies by row (FIG. 2; top matrix), whereas the second compound varies for each dose response matrix, and its concentration varies by column (FIG. 2; bottom matrix). Each cell plate receives one Compound A and six different Compound Bs. • 3. To prepare a compound plate, 384-well PP plate with stock compounds (highest concentration) is prepared. Compounds are diluted 1:1000 in the cell plates, e.g. 10 mM on compound plate will be 10 uM on cell plate. A 384-well LDV plate with pre-determined volumes of DMSO is prepared. Echo is used to dilute stock compounds from PP plate into LDV plate to prepare 7-point dose responses.
(§6) Compounds were added to the cells and cell viability was measured after 72 hour incubation using CellTiter-Glo 2.0 Cell Viability Assay (Promega): • 1. For a compound addition, Echo is used to transfer 25 nL from the compound plate wells to the cell plates according to the plate maps shown in FIG. 2. Cell plates are treated in triplicate. Each well of the cell plate has 25 uL media (1:1000 dilution). Incubate cells post-treatment at 37° C., 95% humidity, and 5% CO2 for 72 hrs (step 106). • 2. […]

[2] = tested on: CAL51 cell line; details: CAL51
Excerpt: as §1, §2, §3, §4, §5, §6

[3] = tested on: CAL51 mutant cell line; details: first compound 0.41-100 nM
Excerpt: as §1, §2, §3, §4, §5, §6

[4] = tested on: ABC-1 cell line
Excerpt: as §1, §2, §3, §4, §5, §6

[5] = tested on: MDA-MB-157 cell line; details: first compound 0.41-100 nM
Excerpt: as §1, §2, §3, §4, §5, §6

[6] = tested on: NCI-H1155 cell line; details: first compound 0.21-100 nM
Excerpt: as §1, §2, §3, §4, §5, §6

[7] = NCI-H2023, combined with Alpelisib 21-10000 nM, first compound 0.21-100 nM
[8] = NCI-H2023, combined with Capivasertib 21-10000 nM, first compound 0.21-100 nM
[9] = NCI-H2023, combined with Everolimus 2.1-1000 nM, first compound 0.21-100 nM
[10] = NCI-H2023, combined with GNE-477 21-10000 nM, first compound 0.21-100 nM
[11] = NCI-H2023, combined with KU-0063794 21-10000 nM, first compound 0.21-100 nM
[12] = NCI-H2023, combined with M2698 21-10000 nM, first compound 0.21-100 nM
[13] = combined with Alpelisib 41-10000 nM, first compound 0.41-33.33 nM
[14] = combined with Alpelisib 41-10000 nM, first compound 0.41-100 nM
[15] = combined with Everolimus 41-10000 nM, first compound 0.41-100 nM
[16] = combined with GNE-477 41-10000 nM, first compound 0.41-100 nM
[17] = combined with HS173 41-10000 nM, first compound 0.41-100 nM
[18] = combined with KU-0063794 41-10000 nM, first compound 0.41-100 nM
[19] = combined with M2698 41-10000 nM, first compound 0.41-100 nM
[20] = combined with Serabelisib 41-10000 nM, first compound 0.41-100 nM
[21] = combined with Alpelisib 41-10000 nM
[22] = combined with Capivasertib 41-10000 nM
[23] = combined with Everolimus 4.1-1000 nM
[24] = combined with GNE-477 41-10000 nM
[25] = combined with KU-0063794 41-10000 nM
[26] = combined with M2698 41-10000 nM
[27] = ABC-1, combined with Alpelisib 21-10000 nM, first compound 0.21-100 nM
[28] = ABC-1, combined with Capivasertib 21-10000 nM, first compound 0.21-100 nM
[29] = ABC-1, combined with Everolimus 2.1-1000 nM, first compound 0.21-100 nM
[30] = ABC-1, combined with GNE-477 21-10000 nM, first compound 0.21-100 nM
[31] = ABC-1, combined with KU-0063794 21-10000 nM, first compound 0.21-100 nM
[32] = ABC-1, combined with M2698 21-10000 nM, first compound 0.21-100 nM
[33] = combined with Everolimus 41-10000 nM
[34] = combined with Alpelisib 21-10000 nM
[35] = combined with Capivasertib 21-10000 nM
[36] = combined with Everolimus 2.1-1000 nM
[37] = combined with GNE-477 21-10000 nM
[38] = combined with KU-0063794 21-10000 nM
[39] = combined with M2698 21-10000 nM

For Cc1ccc(NC(=O)OCc2ccc3c(c2)C(=O)N(C2CCC(=O)NC2=O)C3)cc1Cl (stereo not shown) [Compound 1-6, [2-(2,6-dioxopiperidin-3-yl)-3-oxo-2,3-dihydro-1H-isoindol-5-yl]methyl N-(3-chloro-4-methylphenyl)carbamate], the “Mean Bliss synergy score” value [1, 7] was 19.68, the “Mean Loewe synergy score” value [1, 7] was 8.92 and the “Mean Bliss synergy score” value [1, 8] was 22.78. The “Mean Loewe synergy score” value [1, 8] was 11.70, the “Mean Bliss synergy score” value [1, 9] was 13.21 and the “Mean Loewe synergy score” value [1, 9] was 17.02. For the same molecule, the “Mean Bliss synergy score” value [1, 10] was 14.13, the “Mean Loewe synergy score” value [1, 10] was 5.10 and the “Mean Bliss synergy score” value [1, 11] was 18.40. For the same molecule, the “Mean Loewe synergy score” value [1, 11] was 11.37, the “Mean Bliss synergy score” value [1, 12] was 12.91 and the “Mean Loewe synergy score” value [1, 12] was 11.66. The “Mean Bliss synergy score” value ([1]; combined with KU-0063794 (21 nM to 10 uM), NCI-H2023 cell line, mean across dose response matrix, 72 hrs) was 18.40, the “Mean Loewe synergy score” value ([1]; combined with M2698 (21 nM to 10 uM), NCI-H2023 cell line, mean across dose response matrix, 72 hrs) was 11.66 and the “Mean Bliss synergy score” value [2, 13] was 4.15. For the same molecule, the “Mean Loewe synergy score” value [2, 13] was 7.89, the “Mean Bliss synergy score” value [2, 14] was 13.06 and 19.57 and the “Mean Loewe synergy score” value [2, 14] was 11.36 and 7.04. The “Mean Bliss synergy score” value ([2]; combined with Capivasertib 41-10000 nM, first compound 0.41-100 nM) was 24.03 and 20.68, the “Mean Bliss synergy score” value [2, 15] was 20.31 and the “Mean Loewe synergy score” value [2, 15] was 22.83. The “Mean Bliss synergy score” value [2, 16] was 5.80, the “Mean Loewe synergy score” value [2, 16] was 6.34 and the “Mean Bliss synergy score” value [2, 17] was 4.98. For the same molecule, the “Mean Loewe synergy score” value [2, 17] was 1.89, the “Mean Bliss synergy score” value [2, 18] was 12.93 and the “Mean Loewe synergy score” value [2, 18] was 8.26. The “Mean Bliss synergy score” value [2, 19] was 11.87 and 11.78, the “Mean Loewe synergy score” value [2, 19] was 12.09 and 12.43 and the “Mean Bliss synergy score” value [2, 20] was 4.74. The “Mean Loewe synergy score” value [2, 20] was 0.94, the “Mean Bliss synergy score” value [3, 21] was −0.63 and the “Mean Loewe synergy score” value [3, 21] was −1.04. The “Mean Bliss synergy score” value [3, 22] was 0.95, the “Mean Loewe synergy score” value [3, 22] was −0.06 and the “Mean Bliss synergy score” value [3, 23] was −1.53. For the same molecule, the “Mean Loewe synergy score” value [3, 23] was −0.66, the “Mean Bliss synergy score” value [3, 24] was −1.35 and the “Mean Loewe synergy score” value [3, 24] was −2.34. The “Mean Bliss synergy score” value [3, 25] was −1.01, the “Mean Loewe synergy score” value [3, 25] was −0.85 and the “Mean Bliss synergy score” value [3, 26] was 0.82. For the same molecule, the “Mean Loewe synergy score” value [3, 26] was −0.62, the “Mean Bliss synergy score” value [4, 27] was 20.25 and the “Mean Loewe synergy score” value [4, 27] was 11.94. For the same molecule, the “Mean Bliss synergy score” value [4, 28] was 33.20, the “Mean Loewe synergy score” value [4, 28] was 16.0 and the “Mean Bliss synergy score” value [4, 29] was 26.31. The “Mean Loewe synergy score” value [4, 29] was 19.39, the “Mean Bliss synergy score” value [4, 30] was 20.34 and the “Mean Loewe synergy score” value [4, 30] was 7.13. For the same molecule, the “Mean Bliss synergy score” value [4, 31] was 19.44, the “Mean Loewe synergy score” value [4, 31] was 7.24 and the “Mean Bliss synergy score” value [4, 32] was 17.02. For the same molecule, the “Mean Loewe synergy score” value [4, 32] was 8.75, the “Mean Bliss synergy score” value ([4]; combined with Everolimus (2.1 nM to 1 uM), ABC-1 cell line, mean across dose response matrix, 72 hrs) was 26.31 and the “Mean Bliss synergy score” value [5, 21] was 1.84. For the same molecule, the “Mean Loewe synergy score” value [5, 21] was 3.29, the “Mean Bliss synergy score” value [5, 22] was 6.73 and the “Mean Loewe synergy score” value [5, 22] was 5.04. For the same molecule, the “Mean Bliss synergy score” value [5, 33] was 4.15, the “Mean Loewe synergy score” value [5, 33] was 9.01 and the “Mean Bliss synergy score” value [5, 24] was 0.86. For the same molecule, the “Mean Loewe synergy score” value [5, 24] was 4.66, the “Mean Bliss synergy score” value [5, 25] was 1.22 and the “Mean Loewe synergy score” value [5, 25] was 5.42. For the same molecule, the “Mean Loewe synergy score” value [5, 26] was 5.62 and 4.44, the “Mean Bliss synergy score” value [6, 34] was 5.23 and the “Mean Loewe synergy score” value [6, 34] was 2.10. For the same molecule, the “Mean Bliss synergy score” value [6, 35] was 5.58, the “Mean Loewe synergy score” value [6, 35] was 4.36 and the “Mean Bliss synergy score” value [6, 36] was −1.66. The “Mean Loewe synergy score” value [6, 36] was 6.77, the “Mean Bliss synergy score” value [6, 37] was 3.25 and the “Mean Loewe synergy score” value [6, 37] was 3.14. For the same molecule, the “Mean Bliss synergy score” value [6, 38] was 3.66, the “Mean Loewe synergy score” value [6, 38] was 2.43 and the “Mean Bliss synergy score” value [6, 39] was 2.04. The “Mean Loewe synergy score” value [6, 39] was 4.27.
